These are literature values, as cited in PMC6225228, “Design, Synthesis and Evaluation of N-pyrazinylbenzamides as Potential Antimycobacterial Agents” (Molecules : A Journal of Synthetic Chemistry and Natural …, 2018).

For data set [1], the system named is Mycobacterium tuberculosis H37Rv (Mtb). The note with it: Šula's semisynthetic medium, pH = 5.6, turbidity, cited from earlier work.
The subject of a further data set is HepG2 cells. The note with it: read-out: Amide -CONH- IC50; cited from earlier work.

On to `O=C(Nc1ccccc1O)c1cnc(Cl)cn1` [Amide R1=5-Cl R2=2-OH], for which, in data set [1] (first value), the “Amides MIC” value is 3.13 µg/mL. Also, the “Amides MIC (value in parentheses)” value in data set [1] (second value in parentheses) was 0.78 µg/mL. Further, the IC50 (usually the midpoint of a concentration-inhibition curve) in the data set with HepG2 cells was 30 µM.
